Molecules are shown by their SMILES. Read-outs that look alike come from different tables or passages of the source.

Series [1] concerns patients with Crohn's disease. To be noted: cited from earlier work.
Series [2] deals with T1, unphosphorylated recombinant human p38α (Homo sapiens, UniProt Q16539).
T1 construct: made in house; host or cells: E. coli BL21
In words: Differential scanning fluorimetry (DSF), binding to p38α. To be noted: for stabilization of p38α in DSF (binding), in words: DSF melting temperature, concentration series. Background: DSF heats the sample and reads unfolding from a dye or from intrinsic fluorescence.

Another series addresses ERK2 (Homo sapiens, UniProt P28482). In words: DSF, binding to ERK2. To be noted: for stabilization of ERK2 in DSF (binding), in words: test compounds at 10-100 μM.
The next series deals with HMVECL monolayers. As to the kind of experiment: Endothelial permeability assay (10 kDa dextran flux). In kind it is cell-based, human. To be noted: HMVECL, 10 kDa dextran, TNFα and 39.5° C. for 6 h. The procedure:
Endothelial permeability assay: Permeability of HMVECL monolayers was assessed by measuring transendothelial flux of 10 kDa dextran conjugated to Cascade blue fluorescent dye for 30 min at 37° C. in Matrigel-coated 3 μm pore size Transwell plates.

Series [3] relates to IL-8-directed neutrophil TEM through HMVECLs. In words: Neutrophil transendothelial migration (TEM) assay. To be noted: HMVECLs preincubated at 39.5° C. for 6 h. In kind it is cell-based, human.
The next series concerns HMVECLs. In words: Cytotoxicity assay (MTS, LDH release). To be noted: 100 μM for 48 h. In kind it is cell-based, human. The procedure:
Cytotoxicity of HMVECL exposed to 10-100 μM of each compound is analyzed by MTS assay (Promega), LDH release (Promega), and immunoblotting for activated caspase-3 (Cell Signaling).
Cytotoxicity assay: Cytotoxicity was monitored in parallel HMVEC-L monolayers established in 96-well culture plates using a colorimetric assay that measured reduction of 3-(4,5-dimethylthiazol-2-yl)-5-(3-carboxymethoxyphenyl)-2-(4-sulfophenyl)-2H-tetrazolium (MTS) to a formazan dye (CellTiter 96™; Promega; Madison, WI) according to the manufacturer's protocol and quantifying product formation by measuring absorption at 490 nm.
Background: LDH leaks from cells whose membrane has failed.

In series [4] the test system is LPS/hyperthermia-induced ALI in CD1 mice. In words: Mouse i.t. LPS/FRH-induced acute lung injury model. To be noted: single i.p. injection of 100-1000 μg UM101, 1000 μg UM60 or 1000 μg SB203580, 30 min before i.t. 50 μg LPS and hyperthermia.
In another series the test system is rheumatoid arthritis. Particulars: two trials in rheumatoid arthritis; cited from earlier work.
Series [5] has as its system patients at-risk for ARDS. Particulars: early phase IIa trial, cited from earlier work.
Series [6] has as its system patients with hypercholesterolemia. Particulars: cited from earlier work.
[7] abbreviates: 100 μM, change in melting temperature relative to DMSO control in DSF assay.

ERK2, sequence (P28482 whole entry, species assumed): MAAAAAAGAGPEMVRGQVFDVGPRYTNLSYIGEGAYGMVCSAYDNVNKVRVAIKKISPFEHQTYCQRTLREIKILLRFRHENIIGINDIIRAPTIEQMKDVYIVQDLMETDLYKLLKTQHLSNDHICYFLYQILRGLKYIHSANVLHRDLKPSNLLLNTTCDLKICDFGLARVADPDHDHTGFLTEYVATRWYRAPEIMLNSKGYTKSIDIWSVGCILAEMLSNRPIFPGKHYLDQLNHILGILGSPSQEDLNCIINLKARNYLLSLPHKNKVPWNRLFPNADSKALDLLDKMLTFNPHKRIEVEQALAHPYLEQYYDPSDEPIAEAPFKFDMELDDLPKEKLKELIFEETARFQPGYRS
T1 sequence (Q16539 whole entry): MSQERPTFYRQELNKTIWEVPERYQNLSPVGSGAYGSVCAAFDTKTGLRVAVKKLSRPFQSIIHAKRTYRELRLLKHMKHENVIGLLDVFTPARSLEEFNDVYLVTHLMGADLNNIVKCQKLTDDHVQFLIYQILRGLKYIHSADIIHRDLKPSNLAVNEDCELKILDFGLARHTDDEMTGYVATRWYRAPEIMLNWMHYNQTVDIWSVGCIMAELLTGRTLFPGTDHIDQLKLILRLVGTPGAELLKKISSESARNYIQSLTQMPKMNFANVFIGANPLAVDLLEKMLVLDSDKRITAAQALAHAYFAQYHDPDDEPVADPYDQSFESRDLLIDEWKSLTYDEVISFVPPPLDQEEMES

With `Cc1ccc(-n2nc(C(C)(C)C)cc2NC(=O)Nc2ccc(OCCN3CCOCC3)c3ccccc23)cc1` [BIRB 796], in [1], the “clinical effect in Crohn's disease” value is “no clinical effect” and the “serum CRP levels” value is listed as “transiently reduced”.
For the compound `O=C1c2cc(S(=O)(=O)NCCO)ccc2-c2ccc(S(=O)(=O)NCCO)cc21` [UM60, N2,N7-di(2-hydroxyethyl)-9-oxo-9H-2,7-fluorenedisulfonamide], the ΔTm at 100 µM in series [2] (100 μM, change in melting temperature relative to DMSO control in DSF assay, read-out: p38α ΔTm (° C.) @100 μM) is 0.735 °C; in series [2] (added at 100 μM, DSF, read-out: increase in melting temperature of p38α), roughly 0.7 °C; on ERK2 (setting [7]), 0.195 °C. In addition, in series [2], the “stabilization of p38α in DSF (binding), in words” value (“stabilization of p38α in DSF” for short) was “stabilized p38α”. Besides, the “stabilization of ERK2 in DSF (binding), in words” value (“stabilization of ERK2 in DSF” for short) at ERK2 was “not ERK2”. The “reduction of TNFα/hyperthermia-induced permeability increase” value in the series on HMVECL monolayers (10 μM) is “no effect”; in the series on HMVECL monolayers (25 μM), “no effect”; with HMVECL monolayers (100 μM) it was 71%. Besides, the “reduction of hyperthermia-augmented neutrophil TEM” value is recorded as 18% in series [3] (10 μM), 89% in series [3] (25 μM) and “less than baseline levels” in series [3] (50 μM). In the series with HMVECLs, the “toxicity in LDH release and MTS assays” value is recorded as “Neither compound was toxic”. Further, in series [4], the “mice that died within 24 h” value is listed as “Four of six”.
With `NC(=O)c1ccc(N(C(N)=O)c2c(F)cccc2F)nc1-c1ccc(F)cc1F` [VX-702], in the series with rheumatoid arthritis, the “proportion of treated subjects with ACR20 symptom score vs. placebo” value is “small increases”.
With `COc1ccccc1N1CCN(CCCCNS(=O)(=O)c2ccc(C)cc2)CC1` [compound 2], the “p38α ΔTm (° C.) @100 μM” value in series [2] (setting [7]) was −0.05 °C. Also, at ERK2 (setting [7]), the “ERK2 ΔTm (° C.) @100 μM” value turned out to be 0.412 °C.
As for `O=C1NCCN1CCNS(=O)(=O)c1ccc(S(=O)(=O)c2ccccc2)s1` [compound 3], the “p38α ΔTm (° C.) @100 μM” value in series [2] (setting [7]) was 0.282 °C. Further, in series [2], the “stabilization of p38α in DSF” value is on record as “concentration-dependent stabilization of p38α”. The “ERK2 ΔTm (° C.) @100 μM” value on ERK2 (setting [7]) is 0.337 °C. For the same compound, at ERK2, the “stabilization of ERK2 in DSF” value is “also stabilized ERK2”.
As for `CN1CCN(CC(=O)Nc2ccc(S(N)(=O)=O)cc2)CC1` [compound 4], the “p38α ΔTm (° C.) @100 μM” value in [2] (setting [7]) stood at 0.065 °C. Also, the “ERK2 ΔTm (° C.) @100 μM” value at ERK2 (setting [7]) was determined as 0.452 °C.
Take `CN1CCN(c2ccc(CNS(=O)(=O)c3ccc(-c4ccon4)s3)cc2)CC1` [compound 5]: the “p38α ΔTm (° C.) @100 μM” value in series [2] (setting [7]) is 0.808 °C. The “stabilization of p38α in DSF” value in [2] is listed as “concentration-dependent stabilization of p38α”. The “ERK2 ΔTm (° C.) @100 μM” value at ERK2 (setting [7]) amounted to 0.628 °C. The “stabilization of ERK2 in DSF” value on ERK2 is “also stabilized ERK2”.
As for `Cc1nc(-c2ccc(S(=O)(=O)NCCCN)s2)cs1` [compound 8], the “p38α ΔTm (° C.) @100 μM” value in series [2] (setting [7]) is −0.07 °C. The “ERK2 ΔTm (° C.) @100 μM” value at ERK2 (setting [7]) was found to be 0.531 °C.
Regarding `CS(=O)(=O)N1CCN(c2ncccc2C(F)(F)F)CC1` [compound 13], the “p38α ΔTm (° C.) @100 μM” value in series [2] (setting [7]) was 0.005 °C. Also, at ERK2 (setting [7]), the “ERK2 ΔTm (° C.) @100 μM” value is 0.390 °C.
In the case of `O=S(=O)(c1ccccc1)N(Cc1ccccn1)Cc1ccccn1` [compound 16], in [2] (setting [7]), the “p38α ΔTm (° C.) @100 μM” value was −0.052 °C. At ERK2 (setting [7]), the “ERK2 ΔTm (° C.) @100 μM” value was 0.444 °C.
Regarding `O=S(=O)(NCc1csc(-c2cccs2)n1)c1ccc2c(c1)CCO2` [compound 23], the “p38α ΔTm (° C.) @100 μM” value in [2] (setting [7]) is −0.488 °C. Also, on ERK2 (setting [7]), the “ERK2 ΔTm (° C.) @100 μM” value is −0.598 °C.
For `O=S(=O)(CCS(=O)(=O)c1ccccn1)c1ccc(Cl)cc1` [compound 69], the “p38α ΔTm (° C.) @100 μM” value in series [2] (setting [7]) was −0.233 °C. For the same compound, the “ERK2 ΔTm (° C.) @100 μM” value on ERK2 (setting [7]) amounted to 0.361 °C.
On to `O=C(CSc1cccs1)NCCSCc1ccco1` [compound 146], for which the “p38α ΔTm (° C.) @100 μM” value in [2] (setting [7]) is −1.084 °C. For the same compound, the “ERK2 ΔTm (° C.) @100 μM” value on ERK2 (setting [7]) was −1.632 °C.
In the case of `Cc1nc(S(=O)(=O)NCc2cc(F)cc3c2OCOC3)cn1C` [compound 150], the “p38α ΔTm (° C.) @100 μM” value in [2] (setting [7]) is −0.171 °C. Also, the “ERK2 ΔTm (° C.) @100 μM” value on ERK2 (setting [7]) was 0.133 °C.
In the case of `Cc1cc(F)ccc1-c1nc(NC(CO)CO)nc2c1ccc(=O)n2-c1c(F)cccc1F` [dilmapimod], the “serum C-reactive protein (CRP) levels” value in series [5] (patients at-risk for ARDS) is listed as “modestly reduced”. In [5], the “safety in patients at-risk for ARDS” value was “safe at the doses administered”.
For `Cc1c(F)cc(C(=O)NC2CC2)cc1-c1ccc(C(=O)NCC(C)(C)C)cn1` [losmapimod], in [6], the “serum CRP” value is recorded as “reduced” and the vascular relaxation entry is given as “improved”.

The values above are taken from US11911393B2, “Non-catalytic substrate-selective p38alpha-specific MAPK inhibitors with endothelial-stabilizing and anti-inflammatory activity, and methods of use thereof” (University of Maryland, Baltimore, priority 2016, dated 2024).
